Series [1] in a line: Plasma concentration in C57 mouse at 10 mg/kg, po after 20 hrs by LC/MS analysis. The series is classed as ADME, organism-based. On the set-up: dose 10 mg/kg, route oral.
Series [2] is described as follows: in vivo. The conditions noted are these: C57, mouse, plasma, po, 30 mg/kg.
Series [3] can be described thus: in vivo. The conditions noted are these: mouse, po.
Series [4] can be described thus: in vivo. The conditions noted are these: mouse.

Here are results for eight compounds from ChEMBL document CHEMBL3085718, “Discovery and optimization of orally active cyclohexane-based prolylcarboxypeptidase (PrCP) inhibitors” (Bioorg Med Chem Lett, 2013).

One may read the bioavailability as dose-corrected exposure relative to a reference, in per cent. Lower therefore signals poor availability. One may read the half-life as the time in which the quantity being followed falls by half. A higher half-life goes with slow decline. Turning to `O=C(NC(c1ccc(Cl)cc1)c1ccnc(F)c1)[C@@H]1CC[C@@H](N2CCOCC2)C[C@H]1c1ccc(Br)cc1` (stereo not given in full), the concentration at 20 h was determined as 163 nM in series [1] and 390 nM in “in vivo [2]”. In the series “in vivo [3]”, this compound showed a bioavailability of 90%. This compound showed a half-life in “in vivo [4]” of 2.9 h.
`O=C(NC(c1ccc(Cl)cc1)c1ccncc1Cl)[C@@H]1CC[C@@H](N2CCOCC2)C[C@H]1c1ccc(Br)cc1` (stereo not given in full) registered a bioavailability in the series “in vivo [3]” of 17%. In “in vivo [4]”, this compound had a half-life of 1.5 h.
In “in vivo [3]”, `O=C(NC(c1ccncc1)c1ccc(F)cc1)[C@@H]1CC[C@@H](N2CCOCC2)C[C@H]1c1ccc(Br)cc1` (stereo not given in full) returned a bioavailability of 6.9%. The compound further gave a half-life in the series “in vivo [4]” of 2 h.
The compound `O=C(NC(c1ccncc1)c1ccc(Cl)cc1)[C@@H]1CC[C@@H](N2CCOCC2)C[C@H]1c1ccc(Br)cc1` (stereo not given in full) showed a bioavailability in the series “in vivo [3]” of 8.9%. In “in vivo [4]”, this compound showed a half-life of 1.4 h.
On to `O=C(NC(c1ccc(Cl)cc1)c1ccc(F)cn1)[C@@H]1CC[C@@H](N2CCOCC2)C[C@H]1c1ccc(Br)cc1` (stereo not given in full), for which the concentration at 20 h in “in vivo [2]” was 1840 nM. For the same compound, in the series “in vivo [3]”, the bioavailability turned out to be 50%. In “in vivo [4]”, this compound showed a half-life of 4.9 h.
Consider `O=C(NC(c1ccc(F)cc1)c1ccc(F)cc1)[C@@H]1CC[C@@H](N2CCOCC2)C[C@H]1c1ccc(Br)cc1`, for which the concentration at 20 h in the series “in vivo [2]” amounted to 1020 nM. In addition, the bioavailability in “in vivo [3]” turned out to be 77%. The half-life in “in vivo [4]” was 7.6 h.
In the series “in vivo [3]”, `O=C(NC(c1ccc(Cl)cc1)c1cnccn1)[C@@H]1CC[C@@H](N2CCOCC2)C[C@H]1c1ccc(Br)cc1` (stereo not given in full) had a bioavailability of 5.2%. For the same compound, the half-life in the series “in vivo [4]” was 1.2 h.
Take `O=C(NC(c1ccccc1)c1ccccc1)[C@@H]1CC[C@@H](N2CCOCC2)C[C@H]1c1ccc(Br)cc1`: the bioavailability in the series “in vivo [3]” came out at 36%. The half-life in “in vivo [4]” was 3.1 h.
